Laboratory results as given in patent publication US20240342156A1, “METHODS FOR TREATING PAIN” (Xenon Pharmaceuticals Inc., priority 2019, published 2024).
pEC50: −log10 of the molar value. Like-named read-outs stand apart in the source and are kept apart here.

Assays:
[1] = system: rat spinal nerve ligation (SNL)/Chung model of neuropathic pain; assay: Spinal nerve ligation (SNL)/Chung model, tactile allodynia, electronic von Frey test on lesioned paw; format: in vivo
Description: Objective: The efficacy of Compound A was assessed using the rat spinal nerve ligation (SNL)/Chung model of neuropathic pain. The SNL model in rats was developed as described previously (Chung J M, Kim H K, Chung K. “Segmental spinal nerve ligation model of neuropathic pain.” Methods Mol. Med. 99 (2004) 35-45).
Study Design. Briefly, on Day 0, von Frey and cold plate tests were used for baseline measurements of tactile and cold allodynia respectively. Post-baseline measurements, rats (171-209 g male Sprague Dawley) were anesthetized and an incision at the L4-S2 level was performed to expose the left L5 nerve. A ligature was tied tightly around the L5 nerve (Chung et al.; R. Dost et al., “The anti-hyperalgesic activity of Retigabine is mediated by KCNQ potassium channel activation.” Naunyn-Schmiedeberg's Arch. Pharmacol. 369 (2004) 382-390; Gordon Blackburn-Munro et al., “The anticonvulsant retigabine attenuates nociceptive behaviors in rat models of persistent and neuropathic pain.” Eur. J Pharmacol. 460 (2003) 109-116; and Wu Y J et al., “Discovery of (S,E)-3-(2-fluorophenyl)-N-(1-(3-(pyridin-3-yloxy)phenyl)ethyl)-acrylamide as a potent and efficacious KCNQ2 (Kv7.2) opener for the treatment of neuropathic pain.” Bioorg Med. Chem. Lett. 23 (2013) 6188-91). The wound was then sutured and the rats were allowed to recover. On Day 13, post-surgery baselines for tactile and cold allodynia were measured to verify neuropathic pain. Animals were assigned to treatment groups based on the post-surgery baseline score.
Dosing: For efficacy testing, Compound A was dosed orally once a day for 5 consecutive days from Day 14-18.
Rats were placed under an inverted acrylic plastic box on a grid floor. The tip of an electronic von Frey probe was then applied with increasing force to the surgery hind paw and the force required to induce paw-withdrawal was automatically recorded. The procedure was carried out 3 times and the mean paw withdrawal force was calculated. The experimenter was double blinded to treatment.

[2] = system: CD1 mice (acetic acid induced writhing); assay: Acetic acid writhing (AAW) mouse model of visceral/inflammatory pain; format: in vivo; settings: for pEC50: Mus musculus, PK/PD correlation; for number of nociceptive events: CD1 mice, 0.4% acetic acid i.p.
Description: Objective: The acetic acid test was performed to assess the potential efficacy of Compound A in the acetic acid writhing (AAW) model of inflammatory pain. The AAW test was performed as described previously ([…] Bi et al., “Visceral hyperalgesia induced by forebrain-specific suppression of native Kv7/KCNQ/M-current in mice.” Mol. Pain 2011, 7:84; Gabriela F. Pavao-de-Souza et al., “Acetic acid- and phenyl-p-benzoquinone-induced overt pain-like behavior depends on spinal activation of MAP kinases, PI3K and microglia in mice.” Pharmacol. Biochem. Behav. 101 (2012) 320-328; […] Lett. 413 (2007) 159-162; Mosad A. Ghareeb et al., “HPLC-ESI-MS/MS Profiling of Polyphenolics of a Leaf Extract from Alpinia zerumbet (Zingiberaceae) and Its Anti-Inflammatory, Anti-Nociceptive, and Antipyretic Activities In Vivo.” Molecules 23 (2018) 3238; and […] et al., “Analgesic Activity of Acid-Sensing Ion Channel 3 (ASIC3) Inhibitors: Sea Anemones Peptides Ugr9-1 and APETx2 versus Low Molecular Weight Compounds.” Mar. Drugs 16 (2018), 500). Study Design: Briefly, acetic acid was injected intraperitoneally at 0.4% concentration in 6-7 week old CD1 mice. After the injection of acetic acid, animals were placed in a chamber and their subsequent writhing behavior was video recorded. A writhe is defined as contraction of abdominal muscles accompanied by elongation of the body and extension of hind limbs or rotation of the trunk. […] were counted between 5-15 min after the injection of acetic acid. Selection of Acetic Acid Dose: Based on the concentration response (0.2-0.8%) of acetic acid in CD1 mice, EC75 concentration (0.4%) was selected to produce optimal writhing response. Diclofenac was used as positive control in the acetic acid model.

[3] = Day 18 at 2 h, 8 mg/kg p.o. once daily Day 14-18
[4] = Day 18 at 2 h, 16 mg/kg p.o. once daily Day 14-18
[5] = Day 18 at 2 h, 24 mg/kg p.o. once daily Day 14-18

Cc1cc(N2CCc3cc(F)ccc3C2)cc(C)c1NC(=O)CC(C)(C)C [Compound A, N-[4-(6-fluoro-3,4-dihydro-TH-isoquinolin-2-yl)-2,6-dimethylphenyl]-3,3-dimethylbutanamide]
effect on the tactile allodynia endpoint ([1]; Day 14 and Day 18, compared to morphine): neither Compound A nor retigabine had much effect
Force inducing paw-withdrawal (g), Delta from baseline compared with Vehicle (p.o.), Δ ([1]; Day 14 at 2 h, 8 mg/kg p.o.): +6.7 g
Force inducing paw-withdrawal (g), Delta from baseline, Mean ± s.e.m. ([1]; Day 14 at 2 h, 8 mg/kg p.o.): +7.0 ± 2.5 g
Force inducing paw-withdrawal (g), Mean ± s.e.m. ([1]; Day 14 at 2 h, 8 mg/kg p.o.): 28.5 ± 3.4 g
Force inducing paw-withdrawal (g), Delta from baseline compared with Vehicle (p.o.), Δ ([1]; Day 14 at 2 h, 16 mg/kg p.o.): +5.1 g
Force inducing paw-withdrawal (g), Delta from baseline, Mean ± s.e.m. ([1]; Day 14 at 2 h, 16 mg/kg p.o.): +5.4 ± 2.1 g
Force inducing paw-withdrawal (g), Mean ± s.e.m. ([1]; Day 14 at 2 h, 16 mg/kg p.o.): 25.2 ± 1.9 g
Force inducing paw-withdrawal (g), Delta from baseline compared with Vehicle (p.o.), Δ ([1]; Day 14 at 2 h, 24 mg/kg p.o.): +7.2 g
Force inducing paw-withdrawal (g), Delta from baseline, Mean ± s.e.m. ([1]; Day 14 at 2 h, 24 mg/kg p.o.): +7.5 ± 3.1 g
Force inducing paw-withdrawal (g), Mean ± s.e.m. ([1]; Day 14 at 2 h, 24 mg/kg p.o.): 29.9 ± 2.9 g
Force inducing paw-withdrawal (g), Delta from baseline compared with Vehicle (p.o.), Δ [1, 3]: +7.8 g
Force inducing paw-withdrawal (g), Delta from baseline, Mean ± s.e.m. [1, 3]: +10.6 ± 3.5 g
Force inducing paw-withdrawal (g), Mean ± s.e.m. [1, 3]: 32.1 ± 3.6 g
Force inducing paw-withdrawal (g), Delta from baseline compared with Vehicle (p.o.), Δ [1, 4]: +2.6 g
Force inducing paw-withdrawal (g), Delta from baseline, Mean ± s.e.m. [1, 4]: +5.4 ± 2.1 g
Force inducing paw-withdrawal (g), Mean ± s.e.m. [1, 4]: 25.2 ± 2.0 g
Force inducing paw-withdrawal (g), Delta from baseline compared with Vehicle (p.o.), Δ [1, 5]: +8.7 g
Force inducing paw-withdrawal (g), Delta from baseline, Mean ± s.e.m. [1, 5]: +11.5 ± 3.0 g
Force inducing paw-withdrawal (g), Mean ± s.e.m. [1, 5]: 33.8 ± 3.6 g
pEC50 ([2]; read-out: EC50 (effective concentration to give a 50% reduction in nociceptive events), concentration in brain): 6.40
pEC50 ([2]; read-out: EC50 (effective concentration to give a 50% reduction in nociceptive events), concentration in plasma): 6.60
number of nociceptive events ([2]; Study 1, vehicle, 1, 3 and 10 mg/kg): dose-responsive decrease
number of nociceptive events ([2]; Study 2, 10 mg/kg): decrease
